Experimental data reported in patent US20120121591A1 (priority 2009, published 2012).
Where two headings read alike, the source gives them in different places.

Columns and labels:
[1] = test system: IFN-g secretion from T cells in human whole blood; type: cell-based
[2] = test system: IL-2 secretion from T cells in human whole blood; type: cell-based
[3] = read-out: WB (IFNg) IC50 (nM, Avg)
[4] = read-out: WB (IL-2) IC50 (nM, Avg)

Structure (SMILES): CC[C@H](C)[C@@H]1NC(=O)[C@@H](NC(=O)[C@H](CO)NC(=O)[C@@H](N)CCCNC(=N)N)CSSC[C@@H](C(=O)O)NC(=O)[C@H]([C@@H](C)O)NC(=O)CNC(=O)[C@@H]2CSSC[C@@H]3NC(=O)[C@H](C)NC(=O)[C@H](Cc4ccccc4)NC(=O)[C@H](C)NC(=O)[C@H]([C@@H](C)O)NC(=O)[C@H](CSSC[C@H](NC(=O)[C@H](Cc4ccccc4)NC(=O)[C@H](CO)NC(=O)[C@H](CC(C)C)NC(=O)[C@H](CCCNC(=N)N)NC(=O)[C@H](Cc4ccc(O)cc4)NC(=O)[C@H](CCCCN)NC(=O)[C@H](CCSC)NC(=O)[C@H](CO)NC(=O)[C@H](Cc4c[nH]cn4)NC(=O)[C@H](CCCCN)NC3=O)C(=O)N[C@@H](CCCNC(=N)N)C(=O)N[C@@H](CCCCN)C(=O)N[C@@H]([C@@H](C)O)C(=O)N2)NC(=O)[C@H](CCCNC(=N)N)NC(=O)[C@H](CO)NC(=O)[C@H](CCCCN)NC(=O)[C@@H]2CCCN2C(=O)[C@H]([C@@H](C)CC)NC(=O)[C@H]([C@@H](C)O)NC(=O)[C@H](CC(=O)O)NC1=O [[Ala16]ShK]
- IC50 [1, 3]: 0.078 nM
- IC50 [2, 4]: 0.058 nM

Structure (SMILES): CC[C@H](C)[C@@H]1NC(=O)[C@@H](NC(=O)[C@H](CO)NC(=O)[C@@H](N)CCCNC(=N)N)CSSC[C@@H](C(=O)O)NC(=O)[C@H]([C@@H](C)O)NC(=O)CNC(=O)[C@@H]2CSSC[C@@H]3NC(=O)[C@H](CCC(N)=O)NC(=O)[C@H](Cc4ccccc4)NC(=O)[C@H](C)NC(=O)[C@H](Cc4cccc5ccccc45)NC(=O)[C@H](CSSC[C@H](NC(=O)[C@H](Cc4ccccc4)NC(=O)[C@H](CO)NC(=O)[C@H](CC(C)C)NC(=O)[C@H](CCCNC(=N)N)NC(=O)[C@H](Cc4ccc(O)cc4)NC(=O)[C@H](CCCCN)NC(=O)[C@H](CCSC)NC(=O)[C@H](CO)NC(=O)[C@H](Cc4c[nH]cn4)NC(=O)[C@H](CCCCN)NC3=O)C(=O)N[C@@H](CCCNC(=N)N)C(=O)N[C@@H](CCCCN)C(=O)N[C@@H]([C@@H](C)O)C(=O)N2)NC(=O)[C@H](CCCNC(=N)N)NC(=O)[C@H](CO)NC(=O)[C@H](CCCCN)NC(=O)[C@@H]2CCCN2C(=O)[C@H]([C@@H](C)CC)NC(=O)[C@H]([C@@H](C)O)NC(=O)[C@H](CC(=O)O)NC1=O [[1-Nal13]ShK]
- IC50 [1, 3]: 4.86 nM
- IC50 [2, 4]: 3.56 nM

Structure (SMILES): CC[C@H](C)[C@@H]1NC(=O)[C@@H](NC(=O)[C@H](CO)NC(=O)[C@@H](N)CCCNC(=N)N)CSSC[C@@H](C(=O)O)NC(=O)[C@H]([C@@H](C)O)NC(=O)CNC(=O)[C@@H]2CSSC[C@@H]3NC(=O)[C@H](CCC(N)=O)NC(=O)[C@H](Cc4ccccc4)NC(=O)[C@H](C)NC(=O)[C@H]([C@@H](C)O)NC(=O)[C@H](CSSC[C@H](NC(=O)[C@H](Cc4ccccc4)NC(=O)[C@H](CO)NC(=O)[C@H](CC(C)C)NC(=O)[C@H](CCCNC(=N)N)NC(=O)[C@H](Cc4ccc(O)cc4)NC(=O)[C@H](CCCCN)NC(=O)[C@H](CCSC)NC(=O)[C@H](CO)NC(=O)[C@H](Cc4c[nH]cn4)NC(=O)[C@H](CCCCN)NC3=O)C(=O)N[C@@H](CCCNC(=N)N)C(=O)N[C@@H](CCCCN)C(=O)N[C@@H]([C@@H](C)O)C(=O)N2)NC(=O)[C@H](C)NC(=O)[C@H](CO)NC(=O)[C@H](CCCCN)NC(=O)[C@@H]2CCCN2C(=O)[C@H]([C@@H](C)CC)NC(=O)[C@H]([C@@H](C)O)NC(=O)[C@H](CC(=O)O)NC1=O [[Ala11]ShK]
- IC50 [1, 3]: 1.9 nM
- IC50 [2, 4]: 1.24 nM

Structure (SMILES): CC[C@H](C)[C@@H]1NC(=O)[C@@H](NC(=O)[C@H](CO)NC(=O)[C@@H](N)CCCNC(=N)N)CSSC[C@@H](C(=O)O)NC(=O)[C@H]([C@@H](C)O)NC(=O)CNC(=O)[C@@H]2CSSC[C@@H]3NC(=O)[C@H](CCC(N)=O)NC(=O)[C@H](Cc4ccccc4)NC(=O)[C@H](C)NC(=O)[C@H]([C@@H](C)O)NC(=O)[C@H](CSSC[C@H](NC(=O)[C@H](Cc4ccccc4)NC(=O)[C@H](CO)NC(=O)[C@H](CC(C)C)NC(=O)[C@H](CCCNC(=N)N)NC(=O)[C@H](Cc4ccc(O)cc4)NC(=O)[C@H](CCCCN)NC(=O)[C@H](CCSC)NC(=O)[C@H](CO)NC(=O)[C@H](Cc4c[nH]cn4)NC(=O)[C@H](CCCCN)NC3=O)C(=O)N[C@@H](CCCNC(=N)N)C(=O)N[C@@H](Cc3cccc4ccccc34)C(=O)N[C@@H]([C@@H](C)O)C(=O)N2)NC(=O)[C@H](CCCNC(=N)N)NC(=O)[C@H](CO)NC(=O)[C@H](CCCCN)NC(=O)[C@@H]2CCCN2C(=O)[C@H]([C@@H](C)CC)NC(=O)[C@H]([C@@H](C)O)NC(=O)[C@H](CC(=O)O)NC1=O [[1-Nal30]ShK]
- IC50 [1, 3]: 0.148 nM
- IC50 [2, 4]: 0.082 nM

Structure (SMILES): CC[C@H](C)[C@@H]1NC(=O)[C@@H](NC(=O)[C@H](CO)NC(=O)[C@@H](N)CCCNC(=N)N)CSSC[C@@H](C(=O)O)NC(=O)[C@H]([C@@H](C)O)NC(=O)CNC(=O)[C@@H]2CSSC[C@@H]3NC(=O)[C@H](CCCCN)NC(=O)[C@H](Cc4ccccc4)NC(=O)[C@H](C)NC(=O)[C@H]([C@@H](C)O)NC(=O)[C@H](CSSC[C@H](NC(=O)[C@H](Cc4ccccc4)NC(=O)[C@H](CO)NC(=O)[C@H](CC(C)C)NC(=O)[C@H](CCCNC(=N)N)NC(=O)[C@H](Cc4ccc(O)cc4)NC(=O)[C@H](CCCCN)NC(=O)[C@H](CCSC)NC(=O)[C@H](CO)NC(=O)[C@H](Cc4c[nH]cn4)NC(=O)[C@H](CCCCN)NC3=O)C(=O)N[C@@H](CCCNC(=N)N)C(=O)N[C@@H](CCCNC(=N)N)C(=O)N[C@@H]([C@@H](C)O)C(=O)N2)NC(=O)[C@H](CCCNC(=N)N)NC(=O)[C@H](CO)NC(=O)[C@H](CCCCN)NC(=O)[C@@H]2CCCN2C(=O)[C@H]([C@@H](C)CC)NC(=O)[C@H]([C@@H](C)O)NC(=O)[C@H](CC(=O)O)NC1=O [[Lys16,Arg30]ShK]
- IC50 [1, 3]: 0.189 nM
- IC50 [2, 4]: 0.169 nM

Structure (SMILES): CC[C@H](C)[C@@H]1NC(=O)[C@@H](NC(=O)[C@H](CO)NC(=O)[C@@H](N)CCCNC(=N)N)CSSC[C@@H](C(=O)O)NC(=O)[C@H]([C@@H](C)O)NC(=O)CNC(=O)[C@@H]2CSSC[C@@H]3NC(=O)[C@H](CCC(N)=O)NC(=O)[C@H](Cc4ccccc4)NC(=O)[C@H](C)NC(=O)[C@H](C)NC(=O)[C@H](CSSC[C@H](NC(=O)[C@H](Cc4ccccc4)NC(=O)[C@H](CO)NC(=O)[C@H](CC(C)C)NC(=O)[C@H](CCCNC(=N)N)NC(=O)[C@H](Cc4ccc(O)cc4)NC(=O)[C@H](CCCCN)NC(=O)[C@H](CCSC)NC(=O)[C@H](CO)NC(=O)[C@H](Cc4c[nH]cn4)NC(=O)[C@H](CCCCN)NC3=O)C(=O)N[C@@H](CCCNC(=N)N)C(=O)N[C@@H](CCCCN)C(=O)N[C@@H]([C@@H](C)O)C(=O)N2)NC(=O)[C@H](CCCNC(=N)N)NC(=O)[C@H](CO)NC(=O)[C@H](CCCCN)NC(=O)[C@@H]2CCCN2C(=O)[C@H]([C@@H](C)CC)NC(=O)[C@H]([C@@H](C)O)NC(=O)[C@H](CC(=O)O)NC1=O [[Ala13]ShK]
- IC50 [1, 3]: 0.954 nM
- IC50 [2, 4]: 0.582 nM

Structure (SMILES): CC[C@H](C)[C@@H]1NC(=O)[C@@H](NC(=O)[C@H](CO)NC(=O)[C@@H](N)CCCNC(=N)N)CSSC[C@@H](C(=O)O)NC(=O)[C@H]([C@@H](C)O)NC(=O)CNC(=O)[C@@H]2CSSC[C@@H]3NC(=O)[C@H](CCC(N)=O)NC(=O)[C@H](Cc4ccccc4)NC(=O)[C@H](C)NC(=O)[C@H]([C@@H](C)O)NC(=O)[C@H](CSSC[C@H](NC(=O)[C@H](Cc4ccccc4)NC(=O)[C@H](CO)NC(=O)[C@H](CC(C)C)NC(=O)[C@H](CCCNC(=N)N)NC(=O)[C@H](Cc4ccc(O)cc4)NC(=O)[C@H](CCCCN)NC(=O)[C@H](CCSC)NC(=O)[C@H](C)NC(=O)[C@H](Cc4c[nH]cn4)NC(=O)[C@H](CCCCN)NC3=O)C(=O)N[C@@H](CCCNC(=N)N)C(=O)N[C@@H](CCCCN)C(=O)N[C@@H]([C@@H](C)O)C(=O)N2)NC(=O)[C@H](CCCNC(=N)N)NC(=O)[C@H](CO)NC(=O)[C@H](CCCCN)NC(=O)[C@@H]2CCCN2C(=O)[C@H]([C@@H](C)CC)NC(=O)[C@H]([C@@H](C)O)NC(=O)[C@H](CC(=O)O)NC1=O [[Ala20]ShK]
- IC50 [1, 3]: 0.825 nM
- IC50 [2, 4]: 0.3 nM

Structure (SMILES): CCCC[C@@H]1NC(=O)[C@H](CO)NC(=O)[C@H](Cc2c[nH]cn2)NC(=O)[C@H](CCC(=O)O)NC(=O)[C@@H]2CSSC[C@@H]3NC(=O)[C@H]([C@@H](C)O)NC(=O)[C@H](CCCNC(=N)N)NC(=O)[C@H](CCCNC(=N)N)NC(=O)[C@H](CSSC[C@H](NC(=O)[C@H](CCCNC(=N)N)NC(=O)[C@H](CO)NC(=O)[C@H](CCCCN)NC(=O)[C@@H]4CCCN4C(=O)[C@H]([C@@H](C)CC)NC(=O)[C@H]([C@@H](C)O)NC(=O)[C@H](CC(=O)O)NC(=O)[C@H](CCC(=O)O)NC(=O)[C@@H](NC(=O)[C@H](CO)NC(=O)[C@@H](N)CCCNC(=N)N)CSSC[C@@H](C(N)=O)NC(=O)[C@H]([C@@H](C)O)NC(=O)CNC3=O)C(=O)N[C@@H]([C@@H](C)O)C(=O)N[C@@H](C)C(=O)N[C@@H](Cc3ccccc3)C(=O)N[C@@H](CCCCN)C(=O)N2)NC(=O)[C@H](Cc2ccccc2)NC(=O)[C@H](CO)NC(=O)[C@H](CC(C)C)NC(=O)[C@H](CCCNC(=N)N)NC(=O)[C@H](Cc2ccc(O)cc2)NC(=O)[C@H](CCCCN)NC1=O [[Glu4,18, Lys16,Nle21, Arg30]ShK-amide]
- IC50 [1, 3]: 1.99 nM
- IC50 [2, 4]: 0.97 nM

Structure (SMILES): CC[C@H](C)[C@@H]1NC(=O)[C@@H](NC(=O)[C@H](CO)NC(=O)[C@@H](N)CCCNC(=N)N)CSSC[C@@H](C(=O)O)NC(=O)[C@H]([C@@H](C)O)NC(=O)CNC(=O)[C@@H]2CSSC[C@@H]3NC(=O)[C@H](CCC(N)=O)NC(=O)[C@H](Cc4ccccc4)NC(=O)[C@H](C)NC(=O)[C@H]([C@@H](C)O)NC(=O)[C@H](CSSC[C@H](NC(=O)[C@H](Cc4ccccc4)NC(=O)[C@H](CO)NC(=O)[C@H](CC(C)C)NC(=O)[C@H](CCCNC(=N)N)NC(=O)[C@H](Cc4ccc(O)cc4)NC(=O)[C@H](CCCCN)NC(=O)[C@H](CCSC)NC(=O)[C@H](CO)NC(=O)[C@H](Cc4c[nH]cn4)NC(=O)[C@H](CCCCN)NC3=O)C(=O)N[C@@H](CCCNC(=N)N)C(=O)N[C@@H](CCCCN)C(=O)N[C@@H]([C@@H](C)O)C(=O)N2)NC(=O)[C@H](CCCNC(=N)N)NC(=O)[C@H](CO)NC(=O)[C@H](CCCCN)NC(=O)[C@@H]2CCCN2C(=O)[C@H]([C@@H](C)CC)NC(=O)[C@H]([C@@H](C)O)NC(=O)[C@H](CC(=O)O)NC1=O [ShK(1-35), reference compound]
- IC50 ([1]; read-out: WB (IFNg) IC50): 0.078 nM
- IC50 [1, 3]: 0.052 nM
- IC50 ([2]; read-out: WB (IL-2) IC50): 0.067 nM
- IC50 [2, 4]: 0.043 nM
